Measured values: patent publication US9035057B2, “Dihydroethidine analogues and uses thereof” (Washington University, priority 2009, dated 2015)

Columns and labels:
[1] = In vivo oxidation in brains of ketamine-pretreated mice, confocal microscopy; details: for detection of superoxide produced by ketamine treatment (fluorescence of oxidized form in mouse brain): ketamine pretreatment
Method: In these experiments, mice were pretreated for several days with subanesthetic doses of ketamine, which produces a large increase in neuronal superoxide generation (Behrens et al, 2007). The mice were injected with 27 mg/kg of compound C1 and sacrificed 16 hours later. Brains were sliced and imaged by confocal microscopy. The images of the brains sliced 16 hours after administration of compound C1 are depicted in FIG. 4. […] The quantitative measures of fluorescence of the oxidized forms of DHE and compound C1 in mouse brain are depicted in FIG. 5. When compound C1 was administered to transgenic mice overexpressing SOD, the increased fluorescence from the ketamine pretreatment was abolished, consistent with the SOD removal of superoxide (FIG. 5).

[2] = Plate reader oxidation of compound C1 with H202 and horseradish peroxidase; format: biochemical; details: H202 1 mM, HRP 0.2 U/ml
Method: (§1) This example illustrates oxidation rates of Compound C1 under various conditions. In these experiments, fluorescence intensity of Compound C1 was evaluated in a plate reader assay, and the fluorescence intensity over time of the oxidation rate of compound C1 was evaluated. […] Excitation was done at 480 nm and emission filtering was >590 nm. The following reaction conditions were used: [table]

[3] = Comparative oxidation of C1 and DHE in the presence of oxidizers, single wavelength fluorescence platereader study; format: biochemical; details: elevations with superoxide but not with peroxide (H202), hydroxyl radical (HO—) or peroxynitrate (ONOO—); FIG. 2
Method: This example illustrates comparative oxidation of C1 and DHE. In these experiments, fluorescence of C1 or DHE were determined in the presence of oxidizers. […] In this single wavelength fluorescence platereader study, it should be noted that the ratio of fluorescence increase in a study cannot be compared between DHE and compound C1 since their non-oxidized forms have fluorescence and the light spectra overlap to a variable degree with the oxidized forms.

[4] = Plate reader oxidation rate of compound C1, superoxide production with hypoxanthine and xanthine oxidase (XO system); format: biochemical
Method: as §1

[5] = Plate reader oxidation of compound C1 with peroxide; format: biochemical; details: H202 1 mM
Method: as §1

[6] = Tissue uptake of the tracers, fluorescence lifetime imaging; format: in vivo, mice; details: FIG. 8
Source text: This example illustrates tissue uptake of the tracers. In these experiments, tracer lifetimes in mice were studied by fluorescence imaging of DHE and compounds WC-63, WC-77 and WC-81.

[7] = Selective reactivity with superoxide generated by xanthine oxidase/hypoxanthine, absence or presence of SOD; format: biochemical; details: for oxidation by superoxide / effect of SOD on oxidation by superoxide: xanthine oxidase/hypoxanthine; for oxidation by superoxide: absence of SOD, DHE concentration double that of the WC compounds; for effect of SOD on oxidation by superoxide: presence of SOD; for specificity for superoxide: FIG. 3, change in fluorescent units from baseline; for specificity for superoxide, comparison among compounds: levels of hydroxyl radical very supraphysiological
Method: (§2) This example illustrates a comparison of compounds for selective reactivity with superoxide radical. In these experiments, compounds WC-63, WC-77 and WC-81 were exposed to superoxide generated by xanthine oxidase/hypoxanthine in the absence or presence SOD, and were evaluated similarly as compound C1 in Example 10. The concentration of DHE for all experiments was double that of compounds WC-63, WC-77 and WC-81. […] All of the compounds were also exposed to H202 in the presence of horseradish peroxidase (HRP) to generate hydroxyl radical.

[8] = Exposure to H202 alone, fluorescence; format: biochemical
Method: as §2

[9] = Exposure to H202 in the presence of horseradish peroxidase (HRP), fluorescence; format: biochemical; details: H202 with HRP, supraphysiologic levels
Method: as §2

[10] = Kinetics of compound WC-81 in brain in vivo, eXplore Optix-MX2 fluorescence scanner; design: species or system mouse
Method: In these experiments, an anesthetized mouse was placed in an eXplore Optix™-MX2 scanner, and an initial scan was completed for background fluorescence (T=0). A single intraperitoneal injection of 50 mg/kg of compound WC-81 in 50% DMSO, 50% saline was performed, and the animal was rescanned at 10 minutes. It took approximately 5 minutes to complete the scan. The mouse was removed, allowed to recover, then re-anesthetized and rescanned at 1 hour. A similar recovery and rescan was performed at 2 hours. The mouse was pretreated with subanesthetic doses of ketamine to raise superoxide levels. Cortical (left and right) and cerebellar activity are depicted in FIG. 6.

[11] = Fluorescence from oxidation of compound WC-81 in mouse brain images; format: in vivo, mice; details: FIG. 7
Method: This example illustrates fluorescence from oxidation of Compound WC-81. In these experiments, compound WC-81 was administered to mice, and images of mouse brains were then obtained (FIG. 7).

Compound	detection of superoxide produced by ketamine treatment (fluorescence of oxidized form in mouse brain) ([1]; FIG. 5)	tissue presence of tracer [6]	oxidation by superoxide [7]	effect of SOD on oxidation by superoxide [7]	oxidation with H202 [8]	specificity for superoxide [7]	oxidation in the presence of hydroxyl radical [9]	specificity for superoxide, comparison among compounds [7]	further results
CN1c2cc(N)ccc2-c2ccc(N)cc2C1c1ccccc1 (stereo not drawn) [C1]	detected a large increase	–	–	–	–	–	–	–	pattern of brain fluorescence ([1]; ketamine pretreated mice, 27 mg/kg, sacrificed 16 hours later, FIG. 4): consistent with the presence of intracellular oxidized compound C1; increased fluorescence from ketamine pretreatment in transgenic mice overexpressing SOD ([1]; transgenic mice overexpressing SOD, FIG. 5): abolished; oxidation with H202 with horseradish peroxidase [2]: no oxidation; selective oxidation (fluorescence) in the presence of oxidizers [3]: selective oxidation similar to DHE; effect of superoxide dismutase (SOD) on oxidation ([4]; XO system plus SOD 575 U/ml): completely removed; effect of catalase on oxidation ([4]; XO system plus catalase 60 U/ml): did not effect; rate of conversion by oxidation compared with DHE ([4]; data not shown): slightly faster than DHE; oxidation under superoxide production ([4]; hypoxanthine and xanthine oxidase (XO system)): oxidized rapidly; reactivity and selectivity for superoxide (fluorescence intensity over time) ([4]; plate reader, excitation 480 nm, emission >590 nm, FIG. 1): both reactivity and selectivity for superoxide; oxidation with peroxide [5]: no oxidation
CCN1c2cc(N)ccc2-c2ccc(N)cc2C1c1ccccc1 (stereo not drawn) [DHE, 2,7-diamino-10-ethyl-9-phenyl-9,10-dihydrophenanthradine, reference compound]	detected a large increase	present in the brain and organs in the chest	oxidized by superoxide	fully blocked oxidation	–	–	–	–	–
COc1ccc(C2c3cc(N)ccc3-c3ccc(N)cc3N2C)cc1 (stereo not drawn) [WC-63]	–	present in the brain and organs in the chest	oxidized by superoxide	fully blocked oxidation	generally no evidence of oxidation	high specificity for superoxide	generally no evidence of oxidation	–	–
CN1c2cc(N)ccc2-c2ccc(N)cc2C1c1ccc(OCc2cn(CCF)nn2)cc1 (stereo not drawn) [WC-77]	–	–	oxidized by superoxide	fully blocked oxidation	generally no evidence of oxidation	high specificity for superoxide	generally no evidence of oxidation	most specific compound for superoxide	–
CN1c2cc(N)ccc2-c2ccc(N)cc2C1c1ccc(OCCF)cc1 (stereo not drawn) [WC-81]	–	present in the brain and organs in the chest	oxidized by superoxide	fully blocked oxidation	generally no evidence of oxidation	high specificity for superoxide	partial oxidation	highly selective for superoxide	brain fluorescence levels at 120 minutes ([10]; 50 mg/kg intraperitoneal, 120 minutes): fall in levels; time by which plateau of brain fluorescence was reached ([10]; 50 mg/kg intraperitoneal, cortical and cerebellar activity): ≤ 60 min; brain penetration ([10]; single intraperitoneal injection 50 mg/kg in 50% DMSO, 50% saline, ketamine pretreated mouse, FIG. 6): penetrated the brain; localization of fluorescence from oxidation in brain [11]: localized to cerebral microvessels and to the extracellular space around certain cortical or hippocampal neurons; stability of the product, comparison among compounds [7]: most stable and intact product
